Source: patent publication EP4772513A1, “PI3K-ALPHA INHIBITOR AND USE THEREOF” (TYK Medicines (Zhengzhou), Inc., priority 2023, dated 2025)

Assays:
[1] = system: Human breast cancer cells T47D (H1047R); assay: Cell proliferation inhibition assay (CTG), T47D (H1047R); format: cell-based; settings: 3 days incubation, CTG readout
Protocol: (§1) Cell Proliferation Inhibition Assay
(§2) 1. Experimental Materials
(§3) II. Experimental Protocol
(§4) • a) Cell suspension was prepared; • b) The medium was removed from the culture flask; • c) The cells were rinsed once with PBS; • d) Trypsin was added for digestion, and the cells were centrifuged and collected; • e) The cells were resuspended in medium, counted and adjusted to an appropriate concentration; • f) 100 µL of cell suspension was added to each well of a 96-well plate. One plate was used for each cell line, which was incubated overnight in a 37 °C, 5% CO2 incubator.
(§5) 2. Treatment of Compounds
(§6) • a) Serial dilutions of the test compounds were prepared: The compound was prepared as a 10 mM stock solution. 18 µL of the stock solution was dissolved in 982 µL of the culture medium containing DMSO, followed by 4-fold serial dilutions in culture medium containing 0.5% DMSO to give 9 concentrations. The concentrations of the diluted compound were as follows: 180000 nM, 45000 nM, 11250 nM, 2812.5 nM, 703.13 nM, 175.78 nM, 43.95 nM, 10.99 nM, and 2.75 nM. • b) After thorough mixing, 20 µL of each compound solution was added to the cell plate containing 100 µL of cells per well. Each concentration was tested in triplicate. Final concentrations of the compound were as follows: 30000 nM, 7500 nM, 1875 nM, 468.75 nM, 117.188 nM, 29.30 nM, 7.32 nM, 1.83 nM, and 0.46 nM. • c) The cells were transferred into the incubator and incubated for 3 days.
(§7) The cell plate was removed, 25 µL of CTG reagent was added to each well of the 96-well plate, the mixture was shook on a plate shaker at room temperature for 10 minutes, and the plate was read.
(§8) The cell survival rate was calculated using the following formula (% Cell Survival): % Cell Survival = 100% × (OD_Sample−OD_LCave)/(OD_HC−OD_LCave) [formula] • OD_HC: Reading of the 0.1‰ DMSO control group • OD_Sample: Reading of cells treated with compound • OD_LCave: Reading of blank medium
(§9) Analyzed by Prism: Dose-response-Inhibition - Log (inhibitor) vs response (three parameters for the best fit).

[2] = system: Human breast cancer cells SK-BR-3 (WT); assay: Cell proliferation inhibition assay (CTG), SK-BR-3 (WT); format: cell-based; settings: SK-BR-3 (WT) cells, 3 days incubation, CTG readout
Protocol: as §1, §2, §3, §4, §5, §6, §7, §8, §9

Row | Compound | IC50 ([1]; Homo sapiens, 72 h) [nM] | IC50 ([2]; Homo sapiens, 72 h) [nM] | IC50 [1] [nM] | IC50 [2] [nM]
1 | CC(Nc1ccccc1C(=O)O)c1cc(F)cc2c(=O)n3c(nc12)CN(c1cccnc1)CC3 (single isomer, unassigned) [Compound C15] | 500 to 2000 | > 5000 |  | 
2 | CC(Nc1ccccc1C(=O)O)c1cc(F)cc2c(=O)c3c(oc12)CN(S(=O)(=O)C(C)C)CC3 (single isomer, unassigned) [Compound C39] | ≤ 500 | > 5000 |  | 
3 | CC(Nc1ccccc1C(=O)O)c1cc(F)cc2c(=O)c3c(oc12)CN(C(=O)N1CCCC1)CC3 (single isomer, unassigned) [Compound C41] | ≤ 500 | > 5000 |  | 
4 | CC(Nc1ccccc1C(=O)O)c1cc(F)cc2c(=O)c3c(oc12)CN(C(=O)N1CCC1)CC3 (single isomer, unassigned) [Compound C47] | ≤ 500 | > 5000 |  | 
5 | Cc1cc(C(C)Nc2ccc(Cl)nc2C(=O)O)c2oc3c(c(=O)c2c1)CCN(S(=O)(=O)C(C)C)C3 (single isomer, unassigned) [Compound C49] | ≤ 500 | > 5000 |  | 
6 | Cc1cc(C(C)Nc2ccccc2C(=O)O)c2oc3c(c(=O)c2c1)CCN(C(=O)N1CCCC1)C3 (single isomer, unassigned) [Compound C50] | ≤ 500 | > 5000 |  | 
7 | Cc1cc(C(C)Nc2ccccc2C(=O)O)c2oc3c(c(=O)c2c1)CCN(S(=O)(=O)N1CCCC1)C3 (single isomer, unassigned) [Compound C56] | ≤ 500 | > 5000 |  | 
8 | Cc1cc(C(C)Nc2ccccc2C(=O)O)c2oc3c(c(=O)c2c1)CCN(S(=O)(=O)C1CC1)C3 (single isomer, unassigned) [Compound C59] | ≤ 500 | > 5000 |  | 
9 | Cc1cc(C(C)Nc2ccccc2C(=O)O)c2oc3c(c(=O)c2c1)CCN(S(=O)(=O)c1ccccc1)C3 (single isomer, unassigned) [Compound C61] | ≤ 500 | > 5000 |  | 
10 | CC(Nc1ccccc1C(=O)O)c1cc(F)cc2c(=O)c3c(oc12)C(C)N(S(=O)(=O)C(C)C)CC3 (single isomer, unassigned) [Compound C163] | ≤ 500 | > 5000 |  | 
11 | Cc1cc(C(C)Nc2ccc(Cl)nc2C(=O)O)c2nc3c(c(=O)n2c1)CCN(S(=O)(=O)c1c(C)cnn1C)C3 (single isomer, unassigned) [Compound C184] | ≤ 500 | > 5000 |  | 
12 | Cc1cc(C(C)Nc2ccccc2C(=O)O)c2nc3c(c(=O)n2c1)CCN(S(=O)(=O)C(C)C)C3 (single isomer, unassigned) [Compound C196] | ≤ 500 | > 5000 |  | 
13 | Cc1cc(C(C)Nc2ccccc2C(=O)O)c2oc3c(c(=O)c2c1)CCN(C(c1ccccc1)C(F)(F)F)C3 (single isomer, unassigned) [Compound C207] | ≤ 500 | > 5000 |  | 
14 | Cc1cc(C(C)Nc2ccccc2C(=O)O)c2oc3c(c(=O)c2c1)CCN(C(c1ccccc1)C(F)(F)F)C3 (single isomer, unassigned) [Compound C209] |  |  | ≤ 500 | > 5000
15 | C[C@@H](Nc1ccc(Cl)nc1C(=O)O)c1cc(Cl)cc2c(=O)c3c(oc12)CN(S(=O)(=O)N1CCOCC1)CC3 [Compound C66] | ≤ 500 | > 5000 |  | 
16 | C[C@@H](Nc1ccc(Cl)nc1C(=O)O)c1cc(F)cc2c(=O)c3c(oc12)CN(S(=O)(=O)N1CCOCC1)CC3 [Compound C67] | ≤ 500 | > 5000 |  | 
17 | C[C@@H](Nc1ccc(Cl)nc1C(=O)O)c1cc(F)cc2c(=O)c3c(oc12)CN(S(=O)(=O)C1CC1)CC3 [Compound C68] | 500 to 2000 | > 5000 |  | 
18 | CC(C)S(=O)(=O)N1CCc2c(oc3c([C@@H](C)Nc4ccc(Cl)nc4C(=O)O)cc(F)cc3c2=O)C1 [Compound C72] | 500 to 2000 | > 5000 |  | 
19 | C[C@@H](Nc1ccc(Cl)nc1C(=O)O)c1cc(F)cc2c(=O)c3c(oc12)CN(S(=O)(=O)N1CCC1)CC3 [Compound C73] | 500 to 2000 | > 5000 |  | 

Row | Compound | IC50 ([1]; Homo sapiens, 72 h) [nM] | IC50 ([2]; Homo sapiens, 72 h) [nM] | IC50 [1] [nM] | IC50 [2] [nM]
20 | C[C@@H](Nc1ccc(Cl)nc1C(=O)O)c1cc(F)cc2c(=O)c3c(oc12)CN(S(=O)(=O)c1ccccc1)CC3 [Compound C77] | ≤ 500 | > 5000 |  | 
21 | C[C@@H](Nc1ccccc1C(=O)O)c1cc(F)cc2c(=O)c3c(oc12)CN(S(=O)(=O)C1CC1)CC3 [Compound C78] | 500 to 2000 | > 5000 |  | 
22 | C[C@@H](Nc1ccccc1C(=O)O)c1cc(F)cc2c(=O)c3c(oc12)CN(S(=O)(=O)N1CCOCC1)CC3 [Compound C80] | ≤ 500 | > 5000 |  | 
23 | Cc1cc([C@@H](C)Nc2ccc(Cl)nc2C(=O)O)c2oc3c(c(=O)c2c1)CCN(S(=O)(=O)N1CCOCC1)C3 [Compound C81] | 500 to 2000 | > 5000 |  | 
24 | Cc1cc([C@@H](C)Nc2ccc(Cl)nc2C(=O)O)c2oc3c(c(=O)c2c1)CCN(S(=O)(=O)c1ccccc1)C3 [Compound C82] | ≤ 500 | > 5000 |  | 
25 | C[C@@H](Nc1ccc(Cl)nc1C(=O)O)c1cc(F)cc2c(=O)c3c(oc12)CN(C(=O)N1CC(F)C1)CC3 [Compound C83] | 500 to 2000 | > 5000 |  | 
26 | C[C@@H](Nc1ccccc1C(=O)O)c1cc(F)cc2c(=O)c3c(oc12)CN(S(=O)(=O)c1ccccc1)CC3 [Compound C89] | ≤ 500 | > 5000 |  | 
27 | C[C@@H](Nc1ccc(Cl)nc1C(=O)O)c1cc(F)cc2c(=O)c3c(oc12)CN(S(=O)(=O)c1ccccc1C#N)CC3 [Compound C90] | ≤ 500 | > 5000 |  | 
28 | C[C@@H](Nc1ccc(Cl)nc1C(=O)O)c1cc(F)cc2c(=O)c3c(oc12)CN(S(=O)(=O)c1cccc(C#N)c1)CC3 [Compound C91] | 500 to 2000 | > 5000 |  | 
29 | C[C@@H](Nc1ccc(Cl)nc1C(=O)O)c1cc(F)cc2c(=O)c3c(oc12)CN(S(=O)(=O)c1ccc(C#N)cc1)CC3 [Compound C92] | 500 to 2000 | > 5000 |  | 
30 | C[C@@H](Nc1ccc(Cl)nc1C(=O)O)c1cc(F)cc2c(=O)c3c(oc12)CN(S(=O)(=O)c1ccccc1F)CC3 [Compound C93] | ≤ 500 | > 5000 |  | 
31 | C[C@@H](Nc1ccc(Cl)nc1C(=O)O)c1cc(F)cc2c(=O)c3c(oc12)CN(S(=O)(=O)c1cccc(F)c1)CC3 [Compound C94] | ≤ 500 | > 5000 |  | 
32 | C[C@@H](Nc1ccc(Cl)nc1C(=O)O)c1cc(F)cc2c(=O)c3c(oc12)CN(S(=O)(=O)c1ccc(F)cc1)CC3 [Compound C95] | ≤ 500 | > 5000 |  | 
33 | COc1ccccc1S(=O)(=O)N1CCc2c(oc3c([C@@H](C)Nc4ccc(Cl)nc4C(=O)O)cc(F)cc3c2=O)C1 [Compound C96] | ≤ 500 | > 5000 |  | 
34 | COc1cccc(S(=O)(=O)N2CCc3c(oc4c([C@@H](C)Nc5ccc(Cl)nc5C(=O)O)cc(F)cc4c3=O)C2)c1 [Compound C97] | ≤ 500 | > 5000 |  | 
35 | COc1ccc(S(=O)(=O)N2CCc3c(oc4c([C@@H](C)Nc5ccc(Cl)nc5C(=O)O)cc(F)cc4c3=O)C2)cc1 [Compound C98] | ≤ 500 | > 5000 |  | 
36 | C[C@@H](Nc1ccc(Cl)nc1C(=O)O)c1cc(F)cc2c(=O)c3c(oc12)CN(S(=O)(=O)c1nccn1C)CC3 [Compound C101] | 500 to 2000 | > 5000 |  | 
37 | C[C@@H](Nc1ccc(Cl)nc1C(=O)O)c1cc(F)cc2c(=O)c3c(oc12)CN(S(=O)(=O)C1CCCC1)CC3 [Compound C108] | 500 to 2000 | > 5000 |  | 
38 | C[C@@H](Nc1ccc(Cl)nc1C(=O)O)c1cc(F)cc2c(=O)c3c(oc12)CN(S(=O)(=O)C1CCCCC1)CC3 [Compound C109] | ≤ 500 | > 5000 |  | 
